In PubChem BioAssay (NCI):
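48-hour exposure; five concentrations; linearly interpolated endpoints. The concentration for full growth arrest is given as TGI.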

Experiments:
Test in all cases: NCI tumour cell line growth inhibition, 48 h
A498 renal = tested on: A498 renal
HCC-2998 colon = tested on: HCC-2998 colon
LOX IMVI melanoma = tested on: LOX IMVI melanoma
MALME-3M melanoma = tested on: MALME-3M melanoma
MDA-MB-231 breast = tested on: MDA-MB-231 breast
MDA-MB-435 = tested on: MDA-MB-435
MOLT-4 leukemia = tested on: MOLT-4 leukemia
RPMI-8226 leukemia = tested on: RPMI-8226 leukemia
SF-268 CNS = tested on: SF-268 CNS
SR leukemia = tested on: SR leukemia

Structure (SMILES) | TGI (A498 renal) [µM] | TGI (HCC-2998 colon) [µM] | TGI (LOX IMVI melanoma) [µM] | TGI (MALME-3M melanoma) [µM] | TGI (MDA-MB-231 breast) [µM] | TGI (MDA-MB-435) [µM] | TGI (MOLT-4 leukemia) [µM] | TGI (RPMI-8226 leukemia) [µM] | TGI (SF-268 CNS) [µM] | TGI (SR leukemia) [µM]
O=C(CCCCCCCCC(=O)N1C(=O)CC(=O)N(c2ccccc2)C1=S)N1C(=O)CC(=O)N(c2ccccc2)C1=S | > 100 | > 100 | > 100 | > 100 | > 100 | > 100 | > 100 | > 100 | > 100 | > 100
C(/Cc1ccc2c(c1)OCO2)=N\NC1=NCCN1 | 70.5 | > 100 | > 100 | > 100 | > 100 | > 100 | > 100 | > 100 | > 100 | > 100
C/C(=C\c1ccccc1)C(=O)NCc1ccc(C(=O)NCCc2ccccc2)cc1 | > 100 | > 100 | > 100 | > 100 | > 100 | > 100 | > 100 | > 100 | > 39.5 | > 100
CCCCCCNC(=O)CCC(NC(=O)c1ccc(N(C)Cc2cnc3nc(N)nc(N)c3n2)cc1)C(=O)NCCCCCC (stereo unspecified) | > 100 | > 100 | > 100 |  | > 100 | > 100 | > 100 | > 100 | > 100 | > 100
COC(=O)/C=C\C(C#N)(C#N)N=Cc1ccccc1 | 33.1 | 35.1 | 5.72 | 4.88 | 30.9 | 5.22 | 3.85 | 2.88 | 11.4 | 3.36
C=C1c2nc3ccccc3n2C=C(c2ccc(C)cc2)N1c1ccc(C)cc1 | > 100 | > 72.9 | > 100 | > 100 | > 100 | > 78.2 | > 100 | > 89.8 | > 100 | > 74.3
O=[N+]([O-])c1ccc(N/N=C/CC(O)(C(F)(F)F)C(F)(F)F)c([N+](=O)[O-])c1 | > 10 | > 10 | > 10 | > 10 | > 10 | > 10 | > 10 | > 10 | > 10 | > 10
CC1(C)C(=O)c2ccccc2OC1N1CCN(C2Oc3ccccc3C(=O)C2(C)C)CC1 (stereo unspecified) | > 100 | > 100 | > 100 | > 100 | > 100 | > 100 | > 100 | > 100 | > 100 | > 100
COC(OC)C1OCC(n2cc(F)c(=O)[nH]c2=O)C1O (stereo unspecified) | > 100 | > 100 | > 100 | > 100 | > 100 | > 100 | > 100 | > 100 | > 100 | > 100
C=CCN1C(=O)/C(=C/c2ccco2)N=C1SC1OC(COC(C)=O)C(OC(C)=O)C(OC(C)=O)C1OC(C)=O (stereo unspecified) | > 100 | > 100 | > 100 | > 100 | > 100 | > 100 | > 100 | > 100 |  | > 100
C[n+]1c(-c2ccc(/C=N/Nc3ccnc(N/N=C/c4ccc(-c5cn6ccsc6[n+]5C)cc4)n3)cc2)cn2ccsc21 | 65.3 | > 100 |  | > 100 | > 100 | 40.1 | 64.9 | > 100 |  | > 100
O=c1c2c3c(sc2nc2n1N=C(c1ccc(Cl)cc1)CS2)CCCC3 | > 100 | > 100 | > 100 | > 100 | > 100 | > 100 | > 100 | > 100 | > 100 | > 100
Oc1ccc(Cl)cc1-c1cc(-c2ccccc2)nc(NCN2CCCCC2)n1 | > 100 | > 100 | > 100 | > 100 | > 100 | > 100 | > 100 | > 100 | > 100 | > 100
CSc1cc(-c2ccccn2)nc(-c2ccccn2)c1 | 2.76 | 12.9 | 1.52 | 9.18 | 18.1 | 12.9 | > 100 | > 100 | > 35.2 | > 100
C=CCc1cc(-c2cc(CC=C)c(O)c(CN(CC)CC)c2)cc(CN(CC)CC)c1O | > 100 | > 100 | 31.7 | 32.8 | > 87.7 | > 92.7 | > 100 | > 88.1 | > 100 | 70.6
CSc1c(C#N)c(N)nc2c(N=Nc3ccc(Br)cc3)c(N)nn12 | 52.9 | 26 | 3.58 | 24 | 15.9 | 25 | 27.3 | 54.7 | 13.2 | 6.76
O=C(O)C[C@@H]1[C@@H](O)[C@@H](O)CN2C(=O)c3ccccc3[C@H]12 | > 100 | > 100 | > 100 | > 100 | > 100 | > 100 | > 100 | > 100 | > 100 | > 100
